Data reported in ChEMBL document CHEMBL1130756, “Synthesis and cytotoxic activity of novel 10-alkylated docetaxel analogs” (1998).
Values after ≈ are worked out from the molar mass of the structure shown.

Assays:
P388 = test: Concentration required to inhibit the growth of mouse leukemia (P388) cell lines by 50% on 72 h continuous exposure; type: functional; conditions: P388, 72 h
PC-6 = test: Concentration required to inhibit the growth of human lung cancer (PC-6)cell lines by 50% on 72 hr continuous exposure; type: functional; conditions: PC-6, 72 h

COC(=O)CC[C@H]1C(=O)[C@]2(C)[C@@H](O)CC3OC[C@@]3(OC(C)=O)[C@H]2[C@H](OC(=O)c2ccccc2)[C@]2(O)C[C@H](OC(=O)[C@H](O)[C@@H](NC(=O)OC(C)(C)C)c3ccccc3)C(C)=C1C2(C)C (stereo partly drawn)
GI50 (P388): 3.3 ng/mL (≈ 0.00376 µM)
GI50 (PC-6): 0.771 ng/mL (≈ 0.000878 µM)

CC(=O)O[C@@]12COC1C[C@H](O)[C@@]1(C)C(=O)[C@H](CCC#N)C3=C(C)[C@@H](OC(=O)[C@H](O)[C@@H](NC(=O)OC(C)(C)C)c4ccccc4)C[C@@](O)([C@@H](OC(=O)c4ccccc4)[C@@H]12)C3(C)C (stereo partly drawn)
GI50 (P388): 18.4 ng/mL (≈ 0.0218 µM)
GI50 (PC-6): 0.681 ng/mL (≈ 0.000806 µM)

CC(=O)NCCC[C@H]1C(=O)[C@]2(C)[C@@H](O)CC3OC[C@@]3(OC(C)=O)[C@H]2[C@H](OC(=O)c2ccccc2)[C@]2(O)C[C@H](OC(=O)[C@H](O)[C@@H](NC(=O)OC(C)(C)C)c3ccccc3)C(C)=C1C2(C)C (stereo partly drawn)
GI50 (P388): 71.8 ng/mL (≈ 0.0806 µM)
GI50 (PC-6): 10.5 ng/mL (≈ 0.0118 µM)

CC(=O)O[C@@]12COC1C[C@H](O)[C@@]1(C)C(=O)[C@H](CCC(=O)O)C3=C(C)[C@@H](OC(=O)[C@H](O)[C@@H](NC(=O)OC(C)(C)C)c4ccccc4)C[C@@](O)([C@@H](OC(=O)c4ccccc4)[C@@H]12)C3(C)C (stereo partly drawn)
GI50 (P388): 1870 ng/mL (≈ 2.16 µM)
GI50 (PC-6): 934 ng/mL (≈ 1.08 µM)

CC(=O)O[C@@]12COC1C[C@H](O)[C@@]1(C)C(=O)[C@H](CCCO)C3=C(C)[C@@H](OC(=O)[C@H](O)[C@@H](NC(=O)OC(C)(C)C)c4ccccc4)C[C@@](O)([C@@H](OC(=O)c4ccccc4)[C@@H]12)C3(C)C (stereo partly drawn)
GI50 (P388): 15.5 ng/mL (≈ 0.0182 µM)
GI50 (PC-6): 0.777 ng/mL (≈ 0.000914 µM)

CC(=O)O[C@@]12COC1C[C@H](O)[C@@]1(C)C(=O)[C@H](CCCN)C3=C(C)[C@@H](OC(=O)[C@H](O)[C@@H](NC(=O)OC(C)(C)C)c4ccccc4)C[C@@](O)([C@@H](OC(=O)c4ccccc4)[C@@H]12)C3(C)C (stereo partly drawn)
GI50 (P388): 1520 ng/mL (≈ 1.79 µM)
GI50 (PC-6): 236 ng/mL (≈ 0.278 µM)

CCOC(=O)CC[C@H]1C(=O)[C@]2(C)[C@@H](O)CC3OC[C@@]3(OC(C)=O)[C@H]2[C@H](OC(=O)c2ccccc2)[C@]2(O)C[C@H](OC(=O)[C@H](O)[C@@H](NC(=O)OC(C)(C)C)c3ccccc3)C(C)=C1C2(C)C (stereo partly drawn)
GI50 (P388): 4.31 ng/mL (≈ 0.00483 µM)
GI50 (PC-6): 1.35 ng/mL (≈ 0.00151 µM)

CC(=O)O[C@@]12CO[C@@H]1C[C@H](O)[C@@]1(C)C(=O)[C@H](O)C3=C(C)[C@@H](OC(=O)[C@H](O)[C@@H](NC(=O)OC(C)(C)C)c4ccccc4)C[C@@](O)([C@@H](OC(=O)c4ccccc4)[C@H]21)C3(C)C.O.O.O [DOCETAXEL]
GI50 (P388): 6.74 ng/mL
GI50 (PC-6): 1.13 ng/mL

CC(=O)CC[C@H]1C(=O)[C@]2(C)[C@@H](O)CC3OC[C@@]3(OC(C)=O)[C@H]2[C@H](OC(=O)c2ccccc2)[C@]2(O)C[C@H](OC(=O)[C@H](O)[C@@H](NC(=O)OC(C)(C)C)c3ccccc3)C(C)=C1C2(C)C (stereo partly drawn)
GI50 (P388): 7.12 ng/mL (≈ 0.00826 µM)
GI50 (PC-6): 0.266 ng/mL (≈ 0.000309 µM)
